Columns and labels:
[1] = Radiolabelling test of benzalkonium chloride (BAC) with sodium pertechnetate 99mTc in the presence of PABA (ITLC-SG radiochromatography, physical appearance); assay type: physicochemical; details: for effect on PABA / its anti-oxidant properties / physical appearance (precipitate): MDP/PABA kit
Experimental: A preliminary radiolabelling test of benzalkonium chloride (BAC) with sodium pertechnetate ^99m Tc in the presence of para-aminobenzoic acid (PABA) was conducted.
(§1) Three vials with a total volume of 10 ml from a recently manufactured methylene diphosphonic acid (MDP) kit containing PABA were treated with various amounts of benzalkonium chloride, i.e., 1, 5 and 10 mg which corresponded to 0.01, 0.05 and 0.10% solutions. Radiochromatography was performed using ITLC-SG strips developed in acetone and saline. The vials were tested at 5 and 24 hours post reconstitution. At these two periods, less than 1% free pertechnetate and reduced hydrolyzed technetium was found in the three vials.

[2] = tested on: bacterial, fungal and mold growth; assay: Microbiological test according to USP XXI (Example 15) - overall; assay type: cell-based
Experimental: (§2) A microbiological test was conducted according to USP XXI.
Radiopharmaceutical kits employing MDP (methylene diphosphonic acid), IDP(iminodiphosphonic acid) or DTPA(diethylene-triamine-pentacetic acid) and benzylalkonium chloride (BAC), and optionally polymyxin sulfate B (PSB) were prepared, reconstituted and inoculated utilizing standard procedures.

[3] = tested on: bacterial, fungal and mold growth; assay: Microbiological test according to USP XXI - overall; assay type: cell-based; details: 10 or 25 μg BAC in a volume of 10 ml
Experimental: as §2

dust culture = assay: Bacteriostatic effect of BAC in MDP/PABA - sterility test; assay type: cell-based, wild strains of bacteria and fungi
Experimental: (§3) A test of the bacteriostatic effects of various concentrations of benzalkonium chloride in MDP/PABA was conducted. A total of fourteen vials, two each of the six concentrations of benzalkonium chloride in MDP/PABA and two control MDP/PABA vials were utilized. A dilute source of microorganisms was prepared by adding 3 drops of a "dust culture" (which was a mixed culture derived from dust and comprised a variety of wild strains of bacteria and fungi typical to ambient conditions) to 1 liter of sterile water for injection. After sufficient agitation, three drops of the dilute culture were added to one vial of each concentration, including one zero vial, and all fourteen vials were left to incubate overnight (approx. 18 hours) at room temperature. One tube (15 mi) of Fluid Thioglycollate medium and one tube (15 mi) of Tryptic Soy medium was inoculated with 1 milliliter from each of the fourteen incubated vials. Each tube was incubated for fourteen days.

[4] = MDP/PABA/BAC formulation - radiochemical stress test; assay type: physicochemical
Experimental: Four batches of MDP/PABA/BAC kits were prepared, lyophilized, and tested. The formulations were as follows: […]
One vial from each batch was reconstituted with 500 mCi ^99m Tc-sodium pertechnetate in 10 mL. Twenty minutes later, 7 mL were removed. The vials were left at room temperature for the duration of the test.

[5] = tested on: concentrated dust culture; assay: Bacteriostatic effect of BAC in MDP/PABA - viability check; assay type: cell-based, wild strains of bacteria and fungi
Experimental: as §3

[6] = Accelerated stability study of MDP/PABA/BAC; assay type: physicochemical
Experimental: The formulations were examined in an accelerated stability study which was conducted according to FDA guidelines.

[7] = MDP/PABA compared with MDP/PABA/BAC - biodistribution; assay type: in vivo; details: rat
Experimental: A lyophilized batch of MDP/PABA formulated with benzalkonium chloride (MDP/PABA/BAC) was prepared and tested. The bacterial preservative was added prior to freeze-drying. No special precaution was taken in order to avoid excessive air oxidation of the tin.
A side by side study of biodistribution of the two formulations with and without benzalkonium chloride was conducted.
Each lyophilized vial contained 10 mg of MDP, 1 mg of stannous chloride dehydrate, 2 mg of PABA and 50 μg of benzalkonium chloride (BAC). The pH was adjusted to 7.0. […] The haze was filtered off to give a clear solution.
The dosage was 83 μg MDP per rat (130-150 g). Tissue distribution was monitored at 20 minutes, 1 hour, 2 hours, 6 hours and 24 hours post-reconstitution (PR).

[8] = MDP/PABA formulated with benzalkonium chloride - stress test (radiochromatography); assay type: physicochemical; details: 10 mg BAC added with 500 mCi pertechnetate 99mTc
Experimental: Four vials of MDP/PABA were reconstituted with 500 mCi of pertechnetate ^99m Tc in 9 mL of normal saline. Immediately to two vials were added 1 mg/1 mL (0.01%) of benzalkonium chloride solution. Similarly, to the remaining two vials we added 10 mg/1 mL (0.1%).

[9] = IDP/PABA/BAC and IDP/PABA/BAC/PSB stress test (radiochromatography); assay type: physicochemical; details: 500 mCi pertechnetate 99mTc
Experimental: as §1
(§4) Two vials of IDP/PABA/BAC were reconstituted with 500 mCi of pertechnetate ^99m Tc in 10 mL of normal saline and 7 ml of the solution was removed 20 minutes later, The solutions were kept at room temperature for the length of the test. The radiochromatography tests as described in Example 1 were performed at less than 30 minutes and at 7 and 24 hours post reconstitution (PR):
as §4, with “of IDP/PABA/BAC/PSB” for “of IDP/PABA/BAC”, “minutes later.” for “minutes later,”, “30 min” for “30 minutes”, “(PR): […]” for “(PR):”

[10] = MDP/PABA/BAC radiochemical stress test (Example 3); assay type: physicochemical; details: before filtration; pH 7.0; 50 μg BAC
Experimental: A radiochemical "stress test" was also performed on three vials of MDP/PABA/BAC. A "non-stressed" vial was tested simultaneously as a control.
Four vials of the lyophilized product were labelled with ^99m Tc-sodium pertechnetate. Each received 500 mCi in 10 mL of technetium from a recent elution. For the first three vials, twenty minutes after reconstitution, 7 mL were removed. The fourth vial remained untouched. The vials were kept at room temperature throughout the length of the experiment.
The radiochemical tests were performed at 0.5, 6.0 and 24 hours post reconstitution.

[11] = MDP/PABA kit vials with 1, 5 and 10 mg BAC (0.01, 0.05, 0.10%), 5 and 24 hours post reconstitution

## CC(C)(C)CC(C)(C)c1ccc(OCCOCC[N+](C)(C)Cc2ccccc2)cc1 [benzethonium chloride]
[1]
  effect on PABA / its anti-oxidant properties: did not interfere with the anti-oxidant properties of PABA
  physical appearance (precipitate): caused the phosphonate to precipitate giving a cloudy solution

## N-alkylbenzyldimethylammonium chloride and/or N-dialkylbenzylmethylammonium chloride [benzalkonium chloride]
[2]; 25 μg BAC and optionally 25 μg polymyxin B in 10 ml
  bacteriostasis: effective bacteriostasis
[3]
  bacteriostasis: effective bacteriostasis
Dust culture; 10 μg BAC per vial, control (not inoculated), SOY
  Sterility test (growth): NEG.
Dust culture; 10 μg BAC per vial, control (not inoculated), THIO.
  Sterility test (growth): NEG.
Dust culture; 10 μg BAC per vial, inoculated, SOY
  Sterility test (growth): POS.
Dust culture; 10 μg BAC per vial, inoculated, THIO.
  Sterility test (growth): POS.
Dust culture; 10 μg and 25 μg BAC per vial
  growth in both media: Growth was observed in both media
Dust culture; 25 μg BAC per vial, control (not inoculated), SOY
  Sterility test (growth): NEG.
Dust culture; 25 μg BAC per vial, control (not inoculated), THIO.
  Sterility test (growth): NEG.
Dust culture; 25 μg BAC per vial, inoculated, SOY
  Sterility test (growth): POS.
Dust culture; 25 μg BAC per vial, inoculated, THIO.
  Sterility test (growth): POS.
Dust culture; 50 μg BAC per vial, control (not inoculated), SOY
  Sterility test (growth): NEG.
Dust culture; 50 μg BAC per vial, control (not inoculated), THIO.
  Sterility test (growth): NEG.
Dust culture; 50 μg BAC per vial, inoculated, SOY
  Sterility test (growth): NEG.
Dust culture; 50 μg BAC per vial, inoculated, THIO.
  Sterility test (growth): NEG.
Dust culture; 100 μg BAC per vial, control (not inoculated), SOY
  Sterility test (growth): NEG.
Dust culture; 100 μg BAC per vial, control (not inoculated), THIO.
  Sterility test (growth): NEG.
Dust culture; 100 μg BAC per vial, inoculated, SOY
  Sterility test (growth): NEG.
Dust culture; 100 μg BAC per vial, inoculated, THIO.
  Sterility test (growth): NEG.
Dust culture; 250 μg BAC per vial, control (not inoculated), SOY
  Sterility test (growth): NEG.
Dust culture; 250 μg BAC per vial, control (not inoculated), THIO.
  Sterility test (growth): NEG.
Dust culture; 250 μg BAC per vial, inoculated, SOY
  Sterility test (growth): NEG.
Dust culture; 250 μg BAC per vial, inoculated, THIO.
  Sterility test (growth): NEG.
Dust culture; 1000 μg BAC per vial, control (not inoculated), SOY
  Sterility test (growth): NEG.
Dust culture; 1000 μg BAC per vial, control (not inoculated), THIO.
  Sterility test (growth): NEG.
Dust culture; 1000 μg BAC per vial, inoculated, SOY
  Sterility test (growth): NEG.
Dust culture; 1000 μg BAC per vial, inoculated, THIO.
  Sterility test (growth): NEG.
Dust culture; greater than 25 μg BAC per vial
  growth: no growth
[4]
  effect on reducing capacity of stannous chloride: neither improved nor diminished the reducing capacity of stannous chloride
[5]; 50 μg BAC, control, SOY
  Viability check: date growth observed: 2/2
[5]; 50 μg BAC, control, THIO.
  Viability check: date growth observed: 2/1
[5]; 50 μg BAC, innoc., SOY
  Viability check: date growth observed: 2/2
[5]; 50 μg BAC, innoc., THIO.
  Viability check: date growth observed: 2/1
[5]; 100 μg BAC, control, SOY
  Viability check: date growth observed: 2/2
[5]; 100 μg BAC, control, THIO.
  Viability check: date growth observed: 2/1
[5]; 100 μg BAC, innoc., SOY
  Viability check: date growth observed: 2/6
[5]; 100 μg BAC, innoc., THIO.
  Viability check: date growth observed: 2/1
[5]; 250 μg BAC per vial and over
  effect in viability test: beneficial effect of the benzalkonium chloride was evident
[5]; 250 μg BAC, control, SOY
  Viability check: date growth observed: NEG.
[5]; 250 μg BAC, control, THIO.
  Viability check: date growth observed: NEG.
[5]; 250 μg BAC, innoc., SOY
  Viability check: date growth observed: NEG.
[5]; 250 μg BAC, innoc., THIO.
  Viability check: date growth observed: NEG.
[5]; 1000 μg BAC, control, SOY
  Viability check: date growth observed: NEG.
[5]; 1000 μg BAC, control, THIO.
  Viability check: date growth observed: NEG.
[5]; 1000 μg BAC, innoc., SOY
  Viability check: date growth observed: NEG.
[5]; 1000 μg BAC, innoc., THIO.
  Viability check: date growth observed: NEG.
[6]
  effect on shelf life of unreconstituted products: does not diminish the shelf life of unreconstituted products
[7]
  biodistribution of the radiopharmaceutical upon addition of BAC: not altered
[1]
  effect on PABA / its anti-oxidant properties: did not have a deteriorating effect on PABA
  physical appearance (precipitate): no precipitate was observed
[1]; [11]
  free pertechnetate: less than 1%
  reduced hydrolyzed technetium: less than 1%
[1]; listed as BAC
  effect on PABA / its anti-oxidant properties: does not interfere with the anti-oxidant properties of PABA
[8]
  effect on stability of the product: did not affect the stability of the product
[9]
  effect on stability of the product: did not affect the stability of the product
[10]
  haze on addition to the final solution: a slight haze appeared

## polymyxin B
[2]; addition to BAC
  protection against Gram Negative bacteria: additional protection against Gram Negative bacteria
